Experimental data as given in PubChem BioAssay (NCI).
“And” between values parts separate entries of the source, which are not always exact repeats. Equal entries are not always repeated.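 1) Cells in 96-well plates. 2) Compound, 48 h, 5 concentrations. 3) Linear interpolation between surrounding doses. 4) Unreached endpoint = highest concentration. At the GI50, growth is halved. TGI is the concentration that stops growth completely.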

Each compound was assayed on PC-3 prostate (assay: DTP human tumour cell line panel, 48 h).

| SMILES | GI50 | TGI |
| --- | --- | --- |
| CCC[CH2][Sn]([CH2]CCC)([CH2]CCC)[O]C(=O)CC | 0.189 µM | 0.426 µM |
| C=C(C)[C@@]12OC3(/C=C/C=C/CCCCC)O[C@@H]1[C@@H]1[C@@H]4O[C@]4(CO)[C@@H](O)[C@]4(O)C(=O)C(C)=C[C@H]4[C@@]1(O3)[C@H](C)[C@H]2OC(=O)c1ccccc1 | 1.46 µM | 3.3 µM |
| C/C(=C\CCc1ccoc1)CC/C=C(\C)CCCC1=CC(=O)OC1 | 3.2 µM | 24.9 µM |
| O=c1c2ccccc2[se]n1-c1cccnc1 |  | 48.6 µM |

What follows are compounds tested on SF-295 CNS (assay: DTP human tumour cell line panel, 48 h).

| SMILES | TGI | GI50 |
| --- | --- | --- |
| O=[n+]1c2c(n([O-])c3ccccc31)CCCCCCCCCC2 | > 100 µM |  |
| CNC(=S)N(C)C(=S)Nn1c(=O)c(C)nn(C)c1=S | > 100 µM |  |
| O=C1CCCC/C(=C/c2ccccc2)N1 | > 100 µM |  |
| O=C1CN=C(C[N+](=O)[O-])c2ccccc21 | > 100 µM |  |
| CCCCN(CCCC)CC(C(=O)Nc1ccc([N+](=O)[O-])cc1[N+](=O)[O-])/C(C)=N\NC(=S)NN (stereo unspecified) | > 100 µM |  |
| S=C(N/N=C/c1ccco1)NC12CC3CC(CC(C3)C1)C2 | > 100 µM |  |
| CS(=O)(=O)N/N=C/CN1C(=O)c2ccccc2C1=O | > 100 µM |  |
| CC(=O)O.CC(=O)O.CC(=O)O.CC(=O)O.CC(=O)O.CC(=O)O.O.[Ti].[Ti] | > 100 µM | > 100 µM |
| COC(=O)C1=C(c2ccc3c(c2)OCO3)O[C@H](c2cc(OC)c(OC)c(OC)c2)[C@H]1COC(C)=O | 11.4 µM |  |
| O=[N+]([O-])c1nccn1CC(O)c1ccc(F)cc1 (stereo unspecified) | > 100 µM |  |
| COc1ccc(NC(=O)CCc2cc(-c3ccc(O)c(OC)c3)nc(NC#N)n2)cc1 | > 100 µM |  |
| COC(=O)c1cc2c3ccccc3n(C(C)=O)c2cn1 | > 100 µM |  |
| O=C1c2ccccc2C2(Br)C(=O)c3ccccc3C12 (stereo unspecified) | > 100 µM |  |
| O=S(=O)([O-])c1ccc2c(c1)-c1nc-2nc2[n-]c(nc3nc(nc4[n-]c(n1)c1ccc(S(=O)(=O)[O-])cc41)-c1cc(S(=O)(=O)[O-])ccc1-3)c1ccc(S(=O)(=O)[O-])cc21.[Cu+2].[Na+] | > 100 µM | 98.4 µM |
| CCCCOC(=O)C1C(c2ccc(Cl)cc2)NC(c2ccc(Cl)cc2)C(C(=O)OCCCC)S1(=O)=O (stereo unspecified) | > 100 µM |  |
| Cc1cc(Br)cc(C)c1NC(=O)C(=O)C(C(=O)c1ccc2ccccc2c1)C1OC(=O)c2ccccc21 (stereo unspecified) | 14.9 µM |  |
| CCOC(=O)Oc1c(OC)cc(C(=O)NC2CCc3cc(OC)c(OC)c(OC)c3-c3ccc(SC)c(=O)cc32)cc1OC (stereo unspecified) |  | 0.0242 µM |
| CC(=O)Nc1ccc(C(=O)NN2C(=O)C(Cl)C2c2ccccc2)cc1 (stereo unspecified) | > 100 µM |  |
| CC(C)(C)OC(=O)NCC(=O)OCc1ccccc1 | > 100 µM |  |
| Cc1ccc(SC(C)/C=C/NNC2=NC(c3ccccc3)C(c3ccccc3)=NN2)cc1 (stereo unspecified) | > 100 µM |  |
| CC(C)(C)[SiH]12(OC(C(F)(F)F)(C(F)(F)F)c3ccccc31)OC(C(F)(F)F)(C(F)(F)F)c1ccccc12 | 8.41 µM |  |
| CSc1nc2c(nc(C)c(=O)n2C2OCC(OC(C)=O)C(OC(C)=O)C2OC(C)=O)c(=O)[nH]1 (stereo unspecified) | > 100 µM |  |
| Cc1ccc(C(SCC(N)C(=O)O)(c2ccccc2)c2ccc(C)cc2)cc1 (stereo unspecified) | 2.15 µM | 0.167 µM |

| SMILES | TGI | GI50 |
| --- | --- | --- |
| COc1cc(Nc2cn[nH]c2-c2ccc(Cl)cc2)cc(OC)c1OC | 11.3 µM | 2.18 µM |
| O=S(O)CCCCSSCC(O)C(O)CSSCCCCS(=O)O (stereo unspecified) | 33.1 µM and 37.5 µM |  |
| CNCCNc1c2c(c(NCCNC)c3c(CN(C)C)c[nH]c13)C(=O)c1ccccc1C2=O | 9.16 µM | 1.59 µM |
| O=C1OC(c2ccccc2)=N/C1=C/C=C/c1ccco1 | > 100 µM |  |
| Cc1ccccc1N1C(=O)/C(=C/c2ccc(N(CCC#N)CCC#N)cc2)N=C1c1cc([N+](=O)[O-])ccc1Cl | > 100 µM |  |
| CC1OC2CC(=O)OC2C2=C1C(=O)c1c(O)cccc1C2=O (stereo unspecified) | 2.62 µM | 0.956 µM |
| O=C1NC(=Nc2ccccc2)S/C1=C\c1ccc2ncccc2c1 | > 7.02 µM |  |
| C/C1=C\CC[C@@]2(C)O[C@@H]2[C@H]2OC(=O)[C@@H](CN(C)C)[C@@H]2CC1 | > 100 µM | 32.8 µM |
| Oc1ccc(Cl)cc1Cc1cc(Cl)cc(Cl)c1O | 57.5 µM | 6.66 µM |
| C=C(C=O)C1CCC2(C(=O)O)CCC3(C)C(CCC4C5(C)CCC(O)C(C)(C)C5CCC43C)C12 (stereo unspecified) | 15.1 µM | 3.39 µM |
| COc1ccc(N2C(=O)C(c3ccccc3)(c3ccccc3)C23C(=O)N(C)c2ccccc23)cc1 (stereo unspecified) | > 100 µM | > 100 µM |
| COc1ccc(C2S/C(=C\c3ccccc3O)C(=O)N2NC(=O)Cc2ccccc2)cc1 (stereo unspecified) | > 100 µM |  |
| Cc1ccc(S(=O)(=O)NCC2CCCCC2=O)cc1 (stereo unspecified) | > 100 µM |  |
| CC(C)=C[C@@H]1C[C@H](C)[C@H]2CC[C@H](C)C3=C2[C@](O)(OC3=O)[C@]1(C)O | > 100 µM | > 100 µM |
| CCC[CH2][Sn]([CH2]CCC)([CH2]CCC)[O]C(=O)CC | 0.746 µM | 0.238 µM |
| CNC(=S)NC1CCCCC1NC(=S)NC (stereo unspecified) | > 100 µM |  |
| CC1OC(n2cc(F)c(=O)[nH]c2=O)C=CC1O (stereo unspecified) | > 100 µM |  |
| C=C(C)[C@@]12OC3(/C=C/C=C/CCCCC)O[C@@H]1[C@@H]1[C@@H]4O[C@]4(CO)[C@@H](O)[C@]4(O)C(=O)C(C)=C[C@H]4[C@@]1(O3)[C@H](C)[C@H]2OC(=O)c1ccccc1 | 4.9 µM | < 0.01 µM |
| C/C(=C\CCc1ccoc1)CC/C=C(\C)CCCC1=CC(=O)OC1 | 18 µM | 3.79 µM |
| C=C(C=O)[C@@H]1C2OC(=O)C(=C)[C@@H]2CC(O)[C@@]1(C)CC (stereo partly specified) | 57.2 µM |  |
| C=C(CCCCC)CN1CCCC1[C@@](C)(O)CC(=O)OCC (stereo partly specified) | > 100 µM |  |
| O=c1c2ccccc2[se]n1-c1cccnc1 | > 100 µM |  |
| O=C1c2ccccc2C(=O)C1(Cl)C1(S(=O)(=O)O)c2ccccc2-c2ccccc21 | > 100 µM |  |

These compounds were tested on T-47D breast (assay: DTP human tumour cell line panel, 48 h).

| SMILES | GI50 | TGI |
| --- | --- | --- |
| O=S(=O)([O-])c1ccc2c(c1)-c1nc-2nc2[n-]c(nc3nc(nc4[n-]c(n1)c1ccc(S(=O)(=O)[O-])cc41)-c1cc(S(=O)(=O)[O-])ccc1-3)c1ccc(S(=O)(=O)[O-])cc21.[Cu+2].[Na+] | 75.6 µM | > 100 µM |
| Cc1ccc(C(SCC(N)C(=O)O)(c2ccccc2)c2ccc(C)cc2)cc1 (stereo unspecified) | 0.333 µM | 16.9 µM |
| COc1cc(Nc2cn[nH]c2-c2ccc(Cl)cc2)cc(OC)c1OC | 4.56 µM | 56 µM |
| CNCCNc1c2c(c(NCCNC)c3c(CN(C)C)c[nH]c13)C(=O)c1ccccc1C2=O | 32 µM | > 57.1 µM |
| CC1OC2CC(=O)OC2C2=C1C(=O)c1c(O)cccc1C2=O (stereo unspecified) | 0.106 µM | 0.351 µM |
| O=C1NC(=Nc2ccccc2)S/C1=C\c1ccc2ncccc2c1 | 12.3 µM | > 25 µM |
| C/C1=C\CC[C@@]2(C)O[C@@H]2[C@H]2OC(=O)[C@@H](CN(C)C)[C@@H]2CC1 | 39.4 µM | > 100 µM |
| Oc1ccc(Cl)cc1Cc1cc(Cl)cc(Cl)c1O | 2.47 µM | 8.68 µM |
| C=C(C=O)C1CCC2(C(=O)O)CCC3(C)C(CCC4C5(C)CCC(O)C(C)(C)C5CCC43C)C12 (stereo unspecified) | 5.19 µM | 34.1 µM |
| COc1ccc(N2C(=O)C(c3ccccc3)(c3ccccc3)C23C(=O)N(C)c2ccccc23)cc1 (stereo unspecified) | > 100 µM | > 100 µM |
| CC(C)=C[C@@H]1C[C@H](C)[C@H]2CC[C@H](C)C3=C2[C@](O)(OC3=O)[C@]1(C)O | > 100 µM | > 100 µM |
| CCC[CH2][Sn]([CH2]CCC)([CH2]CCC)[O]C(=O)CC | 0.166 µM | 0.385 µM |
| C=C(C)[C@@]12OC3(/C=C/C=C/CCCCC)O[C@@H]1[C@@H]1[C@@H]4O[C@]4(CO)[C@@H](O)[C@]4(O)C(=O)C(C)=C[C@H]4[C@@]1(O3)[C@H](C)[C@H]2OC(=O)c1ccccc1 | 2.2 µM | 7.25 µM |
| C/C(=C\CCc1ccoc1)CC/C=C(\C)CCCC1=CC(=O)OC1 | 2.27 µM | 22.9 µM |
| O=c1c2ccccc2[se]n1-c1cccnc1 |  | 57.3 µM |
